In the OPERA property sets (Mansouri et al. 2018):

Row | Compound | logP
1 | CN(Cc1cccc([N+](=O)[O-])c1)N=O | 1.17
2 | Cc1cccc(CN(C)N=O)c1 | 1.96
3 | COc1cccc(CN(C)N=O)c1 | 1.6
4 | CN(Cc1ccc(Cl)cc1)N=O | 2.19
5 | Cc1ccc(CN(C)N=O)cc1 | 2.14
6 | CN(Cc1ccc(F)cc1)N=O | 1.67
7 | CN(Cc1ccc([N+](=O)[O-])cc1)N=O | 0.82
8 | CN(Cc1ccccc1)N=O | 1.55
9 | CN(Cc1cccc(C(F)(F)F)c1)N=O | 1.99
10 | CN(Cc1cccc(Cl)c1)N=O | 1.46
